Data on 34 compounds can be found in US5026711A, “4-amino quinolines and naphthyridines and their use as medicines” (priority 1988, dated 1991).

In assay [1] the target is T1, benzodiazepine receptors of the peripheral type (Felis catus, UniProt A0ABI7ZQW3).
T1 sequence (A0ABI7ZQW3 15-183): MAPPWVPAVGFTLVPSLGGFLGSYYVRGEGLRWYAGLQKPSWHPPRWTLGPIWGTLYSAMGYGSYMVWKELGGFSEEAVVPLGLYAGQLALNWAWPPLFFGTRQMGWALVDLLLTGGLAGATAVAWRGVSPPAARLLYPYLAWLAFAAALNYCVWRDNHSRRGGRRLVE
As to the kind of experiment: inhibition of specific binding of [3H] PK11195 to peripheral type benzodiazepine receptors, membrane proteins of cat brain. As to the method:
The method is similar to that described by J. Benavides et al. in Brain Res. Bull. 13 p. 69-77 (1984) and references cited therein.
Suspensions of membrane proteins of cat brain were prepared as described by J. Benavides.
The assays of inhibition of the binding of [^3 H]
Non specific binding was defined as the amount of [^3 H]

In assay [2] the test system is receptors of the peripheral type. In words: in vivo inhibition of [3H] PK11195 binding to peripheral type receptors in organs of the mouse. As to the method:
The assays were carried out in the mouse by using the binder [^3 H]
The products to be tested are administered orally in suspension in an aqueous solution of carboxymethylcellulose (1% wt/v) to groups of 4 mice 35 mn before the intravenous injection of [^3 H] […] 5 mn after the injection the animals are sacrificed by decapitation and the different organs are removed and ground in 10 ml Tris-HCl buffer (50 mM; pH=7.4) to give homogenates.
The control groups only received the carboxymethylcellulose solution and the injection of [^3 H]
A determination was made for each organ by means of scintigraphy of:
1--the amount of radioactive binder present in an organ by measuring the radioactivity of an aliquot of the homogenate.
2--the amount of radioactive binder bound to the membrane tissues of an organ by measuring the radioactivity bound on a fiber glass filter after filtration of another aliquot of the homogenate.
3--the amount of radioactive binder bound non-specifically to the membrane tissues by incubating a control homogenate with an excess of RO5-4864, a known binder, followed by binding of the membranes to a filter and measurement of the radioactivity remaining on the membranes.
The inhibition of specific binding, recorded as SB, is equal to the difference between the radioactivity measurements 2 and 3 divided by measurement 1.
The percentages of inhibition of the binding in different organs determined for compounds of the invention and the reference substances are shown in table VI; they are given by the formula: [formula]

Assay [3] relates to central benzodiazepine receptors. In words: inhibition of specific binding of [3H] flunitrazepam to central benzodiazepine receptors, rat brain. The settings on record: 4° C., pH 7.4. As to the method:
(b) determination of the concentration of the product under study inhibiting 50% of the specific binding of flunitrazepam to the central receptors.
The brains of rats were removed after decapitation and ground, then placed in suspension in an aqueous solution of sucrose (0.32M). The mixture is centrifuged and the pellet is resuspended to give a homogenous suspension in a TRIS-HCl buffered solution (50 mM; pH=7.4). Aliquots of this suspension are incubated at 4° C. after addition of [^3 H] flunitrazepam, alone or with increasing amounts of the compound to be tested.

The mark [4] stands for this setting: [3H] PK11195 0.5 nM, cat brain membranes, 4° C., 2h30; read-out: IC50 (peripheral).

pIC50: −log10 of the molar value. Like-named read-outs stand apart in the source and are kept apart here.

The pIC50 is the negative decadic logarithm of the IC50, by convention in mol/L. With `CCC(C)N(C)C(=O)c1cc2ccccc2c(-c2ccccc2Cl)n1` (centres unmarked) [PK11195, 1-(2-chlorophenyl) 3-(N-methyl N-methylpropyl) carbamoyl isoquinoline, reference compound], the pIC50 in assay [1] (setting [4]) was 8.89. Further, in assay [2] (15 mg/kg oral), the “% Inhibition, brain” value is reported as 71%; the “% Inhibition, heart” value was 27%; the “% Inhibition, kidney” value was found to be 54%; the “% Inhibition, spleen” value came to 29%. In addition, the “% Inhibition, thymus” value in assay [2] (15 mg/kg oral) amounted to 30%.

Regarding `CN1C(=O)CN=C(c2ccc(Cl)cc2)c2cc(Cl)ccc21` [R05-4864, 7-chloro 1,3-dihydro 1-methyl 5-(4-chlorophenyl) 1,4-2H-benzodiazepine 2-one, reference compound], the negative logarithm of the IC50 (pIC50) in assay [1] (read-out: IC50 (peripheral); [3H] PK11195 0.5 nM, cat brain membranes, 4° C., 2h30) is 7.36. Moreover, the “IC50 (central)” value in assay [3] is “inactive”. For the same compound, in assay [2] (15 mg/kg oral), the “% Inhibition, brain” value was determined as 74%; the “% Inhibition, heart” value was found to be 27%; the “% Inhibition, kidney” value was 73%; the “% Inhibition, spleen” value is given as 11%. Besides, the “% Inhibition, thymus” value in assay [2] (15 mg/kg oral) was found to be 28%.

As for `CN(C(=O)CNc1c(C(=O)c2ccccc2)cnc2cccnc12)c1ccc(Cl)cc1` [compound 26276], the negative-log IC50 (pIC50) in assay [1] (setting [4]) is 9.52. This compound also gave a pIC50 in assay [3] of 4.87. In addition, in assay [2] (8 mg/kg oral), the “% Inhibition, brain” value came out at 78%; the “% Inhibition, heart” value is listed as 30%; the “% Inhibition, kidney” value turned out to be 69%; the “% Inhibition, spleen” value is given as 37%. For the same compound, the “% Inhibition, thymus” value in assay [2] (8 mg/kg oral) amounted to 34%.

As to `CCCN(CCC)C(=O)C(C)Nc1c(C(=O)OCC)cnc2cc(Cl)ccc12` (centres unmarked) [compound 26310], in assay [1] (setting [4]), the pIC50 is 9.00. In assay [3], the negative logarithm of the IC50 (pIC50) was less than 4.70. In addition, in assay [2] (25 mg/kg oral), the “% Inhibition, brain” value is on record as 76%; the “% Inhibition, heart” value is recorded as 39%; the “% Inhibition, kidney” value was 32%; the “% Inhibition, spleen” value came out at 52%. Besides, in assay [2] (25 mg/kg oral), the “% Inhibition, thymus” value was determined as 31%.

On to `CN(C(=O)CNc1c(C(=O)c2ccccc2)cnc2cc(Cl)ccc12)c1ccc(Cl)cc1` [compound 26412], for which the pIC50 in assay [1] (setting [4]) was 9.40. This compound showed a pIC50 in assay [3] of less than 5.00. Further, in assay [2] (25 mg/kg oral), the “% Inhibition, brain” value was 79% and the “% Inhibition, spleen” value turned out to be 62%.

As to `CN(C(=O)CNc1c(C(=O)c2ccccc2)cnc2nc(Cl)ccc12)c1ccccc1Cl` [compound 26640], the values for the pIC50 in assay [1] (setting [4]) and in assay [3] were 7.34 and 5.45, respectively.

On to `CCCN(CCC)C(=O)C(C)Nc1c(C(=O)OCC)cnc2cc(OC)c(OC)cc12` (centres unmarked) [compound 26641], for which the values for the negative-log IC50 (pIC50) in assay [1] (setting [4]) and in assay [3] were 6.45 and less than 4.70, respectively.

As to `CN(C(=O)CNc1c(C(=O)c2cccnc2)cnc2cc(Cl)ccc12)c1ccc(Cl)cc1` [compound 26643], the pIC50 was 8.92 in assay [1] (setting [4]) and less than 5.00 in assay [3].

For the compound `CN(C(=O)CNc1c(C(=O)c2ccccc2)cnc2cccnc12)c1ccccc1Cl` [compound 26651], the results for the pIC50 in assay [1] (setting [4]) and in assay [3] were 9.03 and 5.07, respectively.

As to `CN(C(=O)CNc1c(C(=O)c2ccccc2)cnc2cc(Cl)ccc12)c1ccc(Cl)c(Cl)c1` [compound 26676], the pIC50 is 8.96 in assay [1] (setting [4]) and less than 5.00 in assay [3].

For `COc1ccc2ncc(C(=O)c3ccccc3)c(NCC(=O)N(C)c3ccc(Cl)cc3)c2n1` [compound 26698], the pIC50 in assay [1] (setting [4]) was 8.71; in assay [3], less than 5.00.

For `CN(C(=O)CNc1c(C(=O)c2ccccc2)cnc2cc(F)ccc12)c1ccc(Cl)cc1` [compound 26706], the pIC50 in assay [1] (setting [4]) is 8.40; in assay [3], less than 5.00.

With `CN(C(=O)CNc1c(C(=O)c2ccccc2)cnc2cccnc12)c1ccc(Cl)c(Cl)c1` [compound 26708], the pIC50 was 8.55 in assay [1] (setting [4]) and less than 5.00 in assay [3].

Consider `CN(CC(=O)N(C)c1ccc(Cl)cc1)c1c(C(=O)c2ccccc2)cnc2cccnc12` [compound 26710], for which the results for the pIC50 in assay [1] (setting [4]) and in assay [3] were 8.49 and less than 5.00, respectively.

As for `CN(C(=O)CCNc1c(C(=O)c2ccccc2)cnc2cccnc12)c1ccc(Cl)cc1` [compound 26731], the pIC50 in assay [1] (setting [4]) is 8.56; in assay [3], less than 5.00.

Consider `CN(C(=O)CNc1c(C(=O)c2ccccc2)cnc2cc(Cl)ccc12)c1ccc(C(F)(F)F)cc1` [compound 26778], for which the pIC50 is 7.57 in assay [1] (setting [4]) and less than 5.00 in assay [3].

Consider `CN(C(=O)CNc1c(C(=O)c2ccccc2)cnc2cc(C(F)(F)F)ccc12)c1ccc(Cl)cc1` [compound 26794], for which the pIC50 is 7.96 in assay [1] (setting [4]) and less than 5.00 in assay [3].

With `CN(C(=O)CNc1c(C(=O)c2ccccc2)cnc2cccnc12)c1ccccc1` [compound 26803], the pIC50 is 8.15 in assay [1] (setting [4]) and 5.27 in assay [3].

With `CN(C(=O)CNc1c(C(=O)c2ccccc2)cnc2cc(Cl)cnc12)c1ccc(Cl)cc1` [compound 26830], the pIC50 in assay [1] (setting [4]) was 9.89. The compound also gave a pIC50 in assay [3] of less than 5.00. Moreover, in assay [2] (25 mg/kg oral), the “% Inhibition, brain” value turned out to be 64% and the “% Inhibition, spleen” value is 26%.

As for `CN(C(=O)CNc1c(C(=O)c2ccccc2)c[n+]([O-])c2cccnc12)c1ccc(Cl)cc1` [compound 26838], the pIC50 in assay [1] (setting [4]) is 7.97; in assay [3] it was 5.12.

Consider `CN(CC(=O)N(C)c1ccc(Cl)cc1)c1c(C(=O)c2ccccc2)cnc2cc(Cl)ccc12` [compound 26841], for which the negative-log IC50 (pIC50) in assay [1] (setting [4]) is 7.77; in assay [3], less than 5.00.

With `COc1ccc(N(C)C(=O)CNc2c(C(=O)c3ccccc3)cnc3cc(Cl)ccc23)cc1` [compound 26846], the pIC50 in assay [1] (setting [4]) is 8.54. Further, in assay [3], the pIC50 is less than 5.00. For the same compound, in assay [2] (25 mg/kg oral), the “% Inhibition, brain” value came to 91% and the “% Inhibition, spleen” value amounted to 80%.

For `CN(C(=O)CNc1c(C(=O)c2ccccc2)cnc2cccnc12)c1ccc(C(F)(F)F)cc1` [compound 26847], the pIC50 in assay [1] (setting [4]) is 8.80; in assay [3], less than 5.00.

On to `CCN(C(=O)CNc1c(C(=O)c2ccccc2)cnc2cccnc12)c1ccc(Cl)cc1` [compound 26858], for which the pIC50 in assay [1] (setting [4]) was 9.11. For the same compound, the pIC50 in assay [3] is less than 5.00. Moreover, in assay [2] (25 mg/kg oral), the “% Inhibition, brain” value is 95% and the “% Inhibition, spleen” value is given as 84%.

As for `CCCN(CCC)C(=O)CC(C)Nc1c(C(=O)OCC)cnc2cc(Cl)cnc12` (centres unmarked) [compound 26869], the pIC50 in assay [1] (setting [4]) is 6.76; in assay [3] it was less than 4.70.

For the compound `CN(C(=O)CNc1c(C(=O)c2ccccc2)cnc2cc(Cl)c(Cl)nc12)c1ccc(Cl)cc1` [compound 26918], the pIC50 in assay [1] (setting [4]) was 9.80; in assay [3] it was 5.77.

As to `CN(C(=O)CNc1c(C(=O)c2ccccc2)cnc2cnccc12)c1ccc(Cl)cc1` [compound 26919], the negative logarithm of the IC50 (pIC50) is 7.28 in assay [1] (setting [4]) and less than 5.00 in assay [3].

Consider `CCCN(CCC)C(=O)C(C)Nc1c(C(=O)OCC)cnc2cc(F)ccc12` (centres unmarked) [compound 26920], for which the pIC50 was 7.74 in assay [1] (setting [4]) and less than 4.70 in assay [3].

With `CN(C(=O)CNc1c(C(=O)c2ccccc2)cnc2cccnc12)c1c(Cl)cccc1Cl` [compound 26947], the results for the pIC50 in assay [1] (setting [4]) and in assay [3] were 9.10 and 4.73, respectively.

Take `Cc1ccc(N(C)C(=O)CNc2c(C(=O)c3ccccc3)cnc3cccnc23)cc1` [compound 26980]: the pIC50 in assay [1] (setting [4]) was 8.88; in assay [3], 5.01.

Regarding `C=CCN(C(=O)CNc1c(C(=O)c2ccccc2)cnc2cccnc12)c1ccc(Cl)cc1` [compound 27181], the pIC50 was 9.05 in assay [1] (setting [4]) and less than 5.00 in assay [3].

With `COc1ccc(N(C)C(=O)CNc2c(C(=O)c3ccccc3)cnc3cc(Br)ccc23)cc1` [compound 27195], the negative-log IC50 (pIC50) is 9.00 in assay [1] (setting [4]) and less than 5.00 in assay [3].

`COc1ccc(N(C)C(=O)CNc2c(C(=O)c3ccccc3)cnc3cc(Cl)ccc23)cc1` [compound 27196]: the figures for the pIC50 in assay [1] (setting [4]) and in assay [3] were 9.10 and less than 5.00, respectively.

Regarding `CCOc1ccc(N(C)C(=O)CNc2c(C(=O)c3ccccc3)cnc3cc(Cl)ccc23)cc1` [compound 27271], the pIC50 in assay [1] (setting [4]) was 7.17; in assay [3] it was less than 5.00.
